Assays:
Assay type in all cases: functional, cell-based
MCF7 = experiment: Cytotoxicity against human MCF7 cells after 72 hrs by MTT assay; settings: MCF7, 72 h
MDA-MB-231 = experiment: Cytotoxicity against human MDA-MB-231 cells after 72 hrs by MTT assay; settings: MDA-MB-231, 72 h
BT-20 = experiment: Cytotoxicity against human BT20 cells after 72 hrs by MTT assay; settings: BT-20, 72 h
PC-3 = experiment: Cytotoxicity against human PC3 cells after 72 hrs by MTT assay; settings: PC-3, 72 h

## CC(=O)[C@H]1CC[C@H]2[C@@H]3CCC4=C/C(=N/NC(N)=S)CC[C@]4(C)[C@H]3CC[C@]12C
MCF7
  IC50: 20 µM
MDA-MB-231
  IC50: 25 µM
BT-20
  IC50: 5.3 µM
PC-3
  IC50: 16 µM

— ChEMBL document CHEMBL1158510, “Hybrid anticancer agents: isothiocyanate-progesterone conjugates as chemotherapeutic agents and insights into their cytotoxicities” (Bioorg Med Chem Lett, 2010)
